Assay: Stability (labeling / radiochemical purity by HPLC) of ^99mTc-labeled radiopharmaceutical-containing preparation under acidic, neutral and basic conditions
Type: physicochemical
Description: 2 mL of Tc-99m was added dropwise to a lyophilization vial containing 0.1 mg of GP-104, 15 μg of SnCl2, and 20 μg (165 nmol) of cysteine, and left at room temperature for 10 minutes, and the reaction was terminated by adjusting the pH of the mixture to pH 7 using a NaOH solution. The labeling purity was determined using HPLC (analysis conditions: Luna C18 250×4.6 mm, phosphate buffer:acetonitrile (100:0, 0-5 minutes; 80:20, 5-10 minutes; 80:20, 17 minutes; 100:0, 17.1 minutes; 100:0. 20 minutes), 1.0 mL/min, UV=280 nm).
HCl and NaOH were further added dropwise to the solution of Example 7 to adjust the final pH of the solution, followed by stability evaluation under the acidic (pH 5.5) and basic (pH 8.5) conditions. Then, the labeling purity was determined in the same manner as in Example 7 using HPLC.
(§1) 2 mL of Tc-99m was added dropwise to a lyophilization vial containing 0.1 mg of radiopharmaceutical GP-104, 15 μg of SnCl2, 10 μg (82.5 nmol) of cysteine, and 22 μg (82.5 nmol) of VB1, and left at room temperature for 10 minutes, and the reaction was terminated by adjusting the pH of the mixture to pH 7 using a NaOH solution. Then, the labeling purity was determined in the same manner as in Example 7 using HPLC.
HCl and NaOH were further added dropwise to the solution of Example 9 to adjust the final pH of the solution, followed by stability evaluation under the acidic (pH 5.5) and basic (pH 8.5) conditions. Then, the labeling purity was determined in the same manner as in Example 7 using HPLC.
as §1, with “of” for “of radiopharmaceutical”, “17” for “22”, “VB6,” for “VB1,”
HCl and NaOH were further added dropwise to the solution of Example 11 to adjust the final pH of the solution, followed by stability evaluation under the acidic (pH 5.5) and basic (pH 8.5) conditions. Then, the labeling purity was determined in the same manner as in Example 7 using HPLC.
as §1, with “of GP-105,” for “of radiopharmaceutical GP-104,”, “SnCl2, and 20” for “SnCl2, 10”, “μg (165” for “μg (82.5”, “cysteine,” for “cysteine, and 22 μg (82.5 nmol) of VB1,”
HCl and NaOH were further added dropwise to the solution of Example 13 to adjust the final pH of the solution, followed by stability evaluation under the acidic (pH 5.5) and basic (pH 8.5) conditions. Then, the labeling purity was determined in the same manner as in Example 7 using HPLC.
as §1, with “GP-105,” for “radiopharmaceutical GP-104,”
HCl and NaOH were further added dropwise to the solution of Example 15 to adjust the final pH of the solution, followed by stability evaluation under the acidic (pH 5.5) and basic (pH 8.5) conditions. Then, the labeling purity was determined in the same manner as in Example 7 using HPLC.
as §1, with “GP-105,” for “radiopharmaceutical GP-104,”, “17” for “22”, “VB6,” for “VB1,”, “HPLC. […]” for “HPLC.”

[1] = 10 μg (82.5 nmol) cysteine and 17 μg (82.5 nmol) VB6, pH 5.5, 0 hr
[2] = 10 μg (82.5 nmol) cysteine and 17 μg (82.5 nmol) VB6, pH 5.5, 2 hr
[3] = 10 μg (82.5 nmol) cysteine and 17 μg (82.5 nmol) VB6, pH 5.5, 4 hr
[4] = 10 μg (82.5 nmol) cysteine and 17 μg (82.5 nmol) VB6, pH 7, 0 hr
[5] = 10 μg (82.5 nmol) cysteine and 17 μg (82.5 nmol) VB6, pH 7, 2 hr
[6] = 10 μg (82.5 nmol) cysteine and 17 μg (82.5 nmol) VB6, pH 7, 4 hr
[7] = 10 μg (82.5 nmol) cysteine and 17 μg (82.5 nmol) VB6, pH 8.5, 0 hr
[8] = 10 μg (82.5 nmol) cysteine and 17 μg (82.5 nmol) VB6, pH 8.5, 2 hr
[9] = 10 μg (82.5 nmol) cysteine and 17 μg (82.5 nmol) VB6, pH 8.5, 4 hr
[10] = 10 μg (82.5 nmol) cysteine and 22 μg (82.5 nmol) VB1, pH 5.5, 0 hr
[11] = 10 μg (82.5 nmol) cysteine and 22 μg (82.5 nmol) VB1, pH 5.5, 2 hr
[12] = 10 μg (82.5 nmol) cysteine and 22 μg (82.5 nmol) VB1, pH 5.5, 4 hr
[13] = 10 μg (82.5 nmol) cysteine and 22 μg (82.5 nmol) VB1, pH 7, 0 hr
[14] = 10 μg (82.5 nmol) cysteine and 22 μg (82.5 nmol) VB1, pH 7, 2 hr
[15] = 10 μg (82.5 nmol) cysteine and 22 μg (82.5 nmol) VB1, pH 7, 4 hr
[16] = 10 μg (82.5 nmol) cysteine and 22 μg (82.5 nmol) VB1, pH 8.5, 0 hr
[17] = 10 μg (82.5 nmol) cysteine and 22 μg (82.5 nmol) VB1, pH 8.5, 2 hr
[18] = 10 μg (82.5 nmol) cysteine and 22 μg (82.5 nmol) VB1, pH 8.5, 4 hr
[19] = 20 μg (165 nmol) cysteine, pH 5.5, 0 hr
[20] = 20 μg (165 nmol) cysteine, pH 5.5, 2 hr
[21] = 20 μg (165 nmol) cysteine, pH 5.5, 4 hr
[22] = 20 μg (165 nmol) cysteine, pH 7, 0 hr
[23] = 20 μg (165 nmol) cysteine, pH 7, 2 hr
[24] = 20 μg (165 nmol) cysteine, pH 7, 4 hr
[25] = 20 μg (165 nmol) cysteine, pH 8.5, 0 hr
[26] = 20 μg (165 nmol) cysteine, pH 8.5, 2 hr
[27] = 20 μg (165 nmol) cysteine, pH 8.5, 4 hr

O=C(O)C[C@H](NC(=O)[C@@H]1CCCN(C(=O)CCC2CCNCC2)C1)c1cncc(OCCNC(=O)CN(CC(=O)O)CC(=O)O)c1 (99mTc complex, metal not drawn) [GP-105, 2,2′-((2-((2-((5-((S)-2-carboxy-1-((R)-1-(3-(piperidin-4-yl)propanoyl)piperidine-3-carboxamido)ethyl)pyridin-3-yl)oxy)ethyl)amino)-2-oxoethyl)azanediyl)diacetic acid]
radiochemical purity (labeling purity) [1]: 100% | radiochemical purity (labeling purity) [2]: 97.24% | radiochemical purity (labeling purity) [3]: 95.61% | radiochemical purity (labeling purity) [4]: 100% | radiochemical purity (labeling purity) [5]: 98.56% | radiochemical purity (labeling purity) [6]: 98.2% | radiochemical purity (labeling purity) [7]: 100% | radiochemical purity (labeling purity) [8]: 92.21% | radiochemical purity (labeling purity) [9]: 89.62% | radiochemical purity (labeling purity) [10]: 100% | radiochemical purity (labeling purity) [11]: 100% | radiochemical purity (labeling purity) [12]: 98.63% | radiochemical purity (labeling purity) [13]: 100% | radiochemical purity (labeling purity) [14]: 100% | radiochemical purity (labeling purity) [15]: 94.88% | radiochemical purity (labeling purity) [16]: 100% | radiochemical purity (labeling purity) [17]: 94.13% | radiochemical purity (labeling purity) [18]: 90.17% | radiochemical purity (labeling purity) [19]: 100% | radiochemical purity (labeling purity) [20]: 85.49% | radiochemical purity (labeling purity) [21]: 82.11% | radiochemical purity (labeling purity) [22]: 100% | radiochemical purity (labeling purity) [23]: 94.88% | radiochemical purity (labeling purity) [24]: 85.55% | radiochemical purity (labeling purity) [25]: 100% | radiochemical purity (labeling purity) [26]: 50.64% | radiochemical purity (labeling purity) [27]: 23.98%

O=C(O)C[C@H](NC(=O)[C@@H]1CCCN(C(=O)CCC2CCNCC2)C1)c1cncc(OCCNC(=O)CN(CCN(CCN(CC(=O)O)CC(=O)O)CC(=O)O)CC(=O)O)c1 [GP-104, (S)-3-(5-(2-(2-DTPA acetamido)ethoxy)pyridin-3-yl)-3-((R)-1-(3-(piperidin-4-yl)propanoyl)piperidine-3-carboxamido)propanoic acid]
radiochemical purity (labeling purity) [1]: 97.24% | radiochemical purity (labeling purity) [2]: 90.29% | radiochemical purity (labeling purity) [3]: 90.65% | radiochemical purity (labeling purity) [4]: 97.24% | radiochemical purity (labeling purity) [5]: 95.61% | radiochemical purity (labeling purity) [6]: 96.25% | radiochemical purity (labeling purity) [7]: 97.24% | radiochemical purity (labeling purity) [8]: 95.61% | radiochemical purity (labeling purity) [9]: 91.19% | radiochemical purity (labeling purity) [10]: 100% | radiochemical purity (labeling purity) [11]: 92.72% | radiochemical purity (labeling purity) [12]: 91.20% | radiochemical purity (labeling purity) [13]: 100% | radiochemical purity (labeling purity) [14]: 98.63% | radiochemical purity (labeling purity) [15]: 98.18% | radiochemical purity (labeling purity) [16]: 100% | radiochemical purity (labeling purity) [17]: 83.08% | radiochemical purity (labeling purity) [18]: 80.97% | radiochemical purity (labeling purity) [19]: 95.26% | radiochemical purity (labeling purity) [20]: 91.45% | radiochemical purity (labeling purity) [21]: 89.28% | radiochemical purity (labeling purity) [22]: 95.26% | radiochemical purity (labeling purity) [23]: 91.19% | radiochemical purity (labeling purity) [24]: 91.61% | radiochemical purity (labeling purity) [25]: 95.26% | radiochemical purity (labeling purity) [26]: 79.83% | radiochemical purity (labeling purity) [27]: 51.77%
